Measurements reported in PubChem BioAssay (NCI).
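Step 1: Grow cells in 96-well plates. Step 2: Expose to compound for 48 hours at 5 concentrations. Step 3: Interpolate endpoints linearly; if unreached, use highest concentration. TGI marks complete inhibition of growth.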

Columns and labels:
Experiment in all cases: NCI tumour cell line growth inhibition, 48 h
SR leukemia = system: SR leukemia
HT29 colon = system: HT29 colon
DU-145 prostate = system: DU-145 prostate
NCI-H522 lung = system: NCI-H522 lung
SF-539 CNS = system: SF-539 CNS
MDA-MB-435 = system: MDA-MB-435
CAKI-1 renal = system: CAKI-1 renal
NCI-H226 lung = system: NCI-H226 lung
PC-3 prostate = system: PC-3 prostate
MALME-3M melanoma = system: MALME-3M melanoma
SF-268 CNS = system: SF-268 CNS
SK-MEL-5 melanoma = system: SK-MEL-5 melanoma
M14 melanoma = system: M14 melanoma
HOP-92 NSCLC = system: HOP-92 NSCLC
COLO 205 colon = system: COLO 205 colon
NCI/ADR-RES ovarian = system: NCI/ADR-RES ovarian
MDA-N = system: MDA-N
RPMI-8226 leukemia = system: RPMI-8226 leukemia
A549 NSCLC = system: A549 NSCLC
MCF7 breast = system: MCF7 breast
MOLT-4 leukemia = system: MOLT-4 leukemia
UO-31 renal = system: UO-31 renal
HCT-116 colon = system: HCT-116 colon
HS 578T breast = system: HS 578T breast
EKVX NSCLC = system: EKVX NSCLC
IGROV1 ovarian = system: IGROV1 ovarian
OVCAR-8 ovarian = system: OVCAR-8 ovarian
786-0 renal = system: 786-0 renal
T-47D breast = system: T-47D breast
SF-295 CNS = system: SF-295 CNS
SK-OV-3 ovarian = system: SK-OV-3 ovarian
U251 CNS = system: U251 CNS
SK-MEL-2 melanoma = system: SK-MEL-2 melanoma
SW-620 colon = system: SW-620 colon
TK-10 renal = system: TK-10 renal
OVCAR-5 ovarian = system: OVCAR-5 ovarian
CCRF-CEM leukemia = system: CCRF-CEM leukemia
HOP-62 NSCLC = system: HOP-62 NSCLC
K-562 leukemia = system: K-562 leukemia
SNB-75 CNS = system: SNB-75 CNS
OVCAR-3 ovarian = system: OVCAR-3 ovarian
HCT-15 colon = system: HCT-15 colon
SNB-19 CNS = system: SNB-19 CNS
A498 renal = system: A498 renal
BT-549 breast = system: BT-549 breast
ACHN renal = system: ACHN renal
KM12 colon = system: KM12 colon
OVCAR-4 ovarian = system: OVCAR-4 ovarian
SN12C renal = system: SN12C renal
SK-MEL-28 melanoma = system: SK-MEL-28 melanoma
RXF 393 renal = system: RXF 393 renal
MDA-MB-231 breast = system: MDA-MB-231 breast
UACC-257 melanoma = system: UACC-257 melanoma
HL-60(TB) leukemia = system: HL-60(TB) leukemia
LOX IMVI melanoma = system: LOX IMVI melanoma
NCI-H23 lung = system: NCI-H23 lung
HCC-2998 colon = system: HCC-2998 colon
UACC-62 melanoma = system: UACC-62 melanoma
NCI-H460 lung = system: NCI-H460 lung

CCOc1cc(C2CC(c3ccc(NS(=O)(=O)c4cc([N+](=O)[O-])ccc4C)cc3)=NN2C(=O)c2ccccc2)ccc1O (configuration not stated)
TGI (SR leukemia): > 100 µM | TGI (HT29 colon): > 100 µM | TGI (DU-145 prostate): > 100 µM | TGI (NCI-H522 lung): 64.5 µM | TGI (SF-539 CNS): 52.8 µM | TGI (MDA-MB-435): > 100 µM | TGI (CAKI-1 renal): > 100 µM | TGI (NCI-H226 lung): > 100 µM | TGI (PC-3 prostate): > 100 µM | TGI (MALME-3M melanoma): 61.4 µM | TGI (SF-268 CNS): > 100 µM | TGI (SK-MEL-5 melanoma): 37.8 µM | TGI (M14 melanoma): 76.1 µM | TGI (HOP-92 NSCLC): 47.6 µM | TGI (COLO 205 colon): 31.4 µM | TGI (NCI/ADR-RES ovarian): > 100 µM | TGI (MDA-N): 70.6 µM | TGI (RPMI-8226 leukemia): > 100 µM | TGI (A549 NSCLC): > 100 µM | TGI (MCF7 breast): > 100 µM | TGI (MOLT-4 leukemia): > 100 µM | TGI (UO-31 renal): > 100 µM | TGI (HCT-116 colon): 56.5 µM | TGI (HS 578T breast): > 100 µM | TGI (EKVX NSCLC): 61.4 µM | TGI (IGROV1 ovarian): > 100 µM | TGI (OVCAR-8 ovarian): > 100 µM | TGI (786-0 renal): 46.7 µM | TGI (T-47D breast): 71.3 µM | TGI (SF-295 CNS): 87.7 µM | TGI (SK-OV-3 ovarian): 54.5 µM | TGI (U251 CNS): > 100 µM | TGI (SK-MEL-2 melanoma): 30.9 µM | TGI (SW-620 colon): > 100 µM | TGI (TK-10 renal): 54.2 µM | TGI (OVCAR-5 ovarian): > 100 µM | TGI (CCRF-CEM leukemia): > 100 µM | TGI (HOP-62 NSCLC): 47.2 µM | TGI (K-562 leukemia): > 100 µM | TGI (SNB-75 CNS): 36.6 µM | TGI (OVCAR-3 ovarian): 36.3 µM | TGI (HCT-15 colon): > 100 µM | TGI (SNB-19 CNS): > 100 µM | TGI (A498 renal): 44.3 µM | TGI (BT-549 breast): 93.3 µM | TGI (ACHN renal): 85.3 µM | TGI (KM12 colon): > 100 µM | TGI (OVCAR-4 ovarian): > 100 µM | TGI (SN12C renal): 58.9 µM | TGI (SK-MEL-28 melanoma): > 100 µM | TGI (RXF 393 renal): 42.6 µM | TGI (MDA-MB-231 breast): 48.1 µM | TGI (UACC-257 melanoma): 91.5 µM | TGI (HL-60(TB) leukemia): 65.4 µM | TGI (LOX IMVI melanoma): > 100 µM | TGI (NCI-H23 lung): 69 µM

Cc1ccc2c(c1)Sc1ccc(N=NN(C)C)cc1N2C
TGI (SR leukemia): > 100 µM | TGI (HT29 colon): > 100 µM | TGI (DU-145 prostate): > 100 µM | TGI (NCI-H522 lung): > 100 µM | TGI (MDA-MB-435): > 100 µM | TGI (CAKI-1 renal): > 100 µM | TGI (NCI-H226 lung): > 100 µM | TGI (PC-3 prostate): > 100 µM | TGI (MALME-3M melanoma): > 100 µM | TGI (SF-268 CNS): > 100 µM | TGI (SK-MEL-5 melanoma): > 100 µM | TGI (M14 melanoma): > 100 µM | TGI (HOP-92 NSCLC): > 100 µM | TGI (COLO 205 colon): > 100 µM | TGI (NCI/ADR-RES ovarian): > 100 µM | TGI (MDA-N): > 100 µM | TGI (RPMI-8226 leukemia): > 100 µM | TGI (A549 NSCLC): > 100 µM | TGI (MCF7 breast): > 100 µM | TGI (MOLT-4 leukemia): > 100 µM | TGI (HCC-2998 colon): > 100 µM | TGI (UO-31 renal): > 100 µM | TGI (HCT-116 colon): > 100 µM | TGI (HS 578T breast): > 100 µM | TGI (EKVX NSCLC): > 100 µM | TGI (IGROV1 ovarian): > 100 µM | TGI (OVCAR-8 ovarian): > 100 µM | TGI (786-0 renal): > 100 µM | TGI (T-47D breast): 85.9 µM | TGI (SF-295 CNS): > 100 µM | TGI (SK-OV-3 ovarian): > 100 µM | TGI (U251 CNS): > 100 µM | TGI (SK-MEL-2 melanoma): > 100 µM | TGI (SW-620 colon): > 100 µM | TGI (TK-10 renal): > 100 µM | TGI (OVCAR-5 ovarian): > 100 µM | TGI (CCRF-CEM leukemia): > 100 µM | TGI (HOP-62 NSCLC): > 100 µM | TGI (SNB-75 CNS): > 100 µM | TGI (OVCAR-3 ovarian): > 100 µM | TGI (HCT-15 colon): > 100 µM | TGI (SNB-19 CNS): > 100 µM | TGI (A498 renal): > 100 µM | TGI (UACC-62 melanoma): > 100 µM | TGI (BT-549 breast): > 100 µM | TGI (ACHN renal): > 100 µM | TGI (KM12 colon): > 100 µM | TGI (OVCAR-4 ovarian): > 100 µM | TGI (SN12C renal): > 100 µM | TGI (NCI-H460 lung): > 100 µM | TGI (SK-MEL-28 melanoma): > 100 µM | TGI (RXF 393 renal): > 100 µM | TGI (MDA-MB-231 breast): > 100 µM | TGI (HL-60(TB) leukemia): > 100 µM | TGI (LOX IMVI melanoma): > 100 µM | TGI (NCI-H23 lung): > 100 µM
